Assay results: PMC10066365, “Nemacol is a small molecule inhibitor of C. elegans vesicular acetylcholine transporter with anthelmintic potential” (Nature Communications, 2023)
pEC50: −log10 of the molar value. Values joined by “and” are separate entries in the source; they are usually repeats but may differ in a detail not shown here. Equal entries are not always repeated.

Legend:
[1] = system: Dirofilaria immitis L3/L4; experiment: Dirofilaria immitis L3/L4 motility assay (DiroImager, 72 h)
C. elegans = C. elegans motor phenotype scoring on solid media (Punc/jerky-unc, coiled, paralyzed), wild-type young adults; assay type: in vivo, Caenorhabditis elegans; details: for atypical locomotion (number of animals) / coiled (number of animals) / no phene (number of animals) / paralyzed (number of animals): young adults, 20 animals per trial, single replicate counts; for Fraction Coiled / Fraction Jerky-Unc / Fraction No Phenotype / Fraction Parayzed / Fraction Coiled, Averages of 3 biological repeats / Fraction Jerky-Unc, Averages of 3 biological repeats / Fraction No Phenotype, Averages of 3 biological repeats / Fraction Parayzed, Averages of 3 biological repeats / C1 (loose coil) worm count / C2 (tight coil) worm count / J (jerky-unc) worm count / NP (no phene) worm count / P (paralyzed) worm count: 60 min; for rep 1 atypical locomotion / rep 1 coiled / rep 1 no phene / rep 1 paralyzed: N2, count of 20 animals
[2] = 15 µM, N2 adult worms, Averages of 3 biological repeats
[3] = 15 µM, N2 adult worms, Bio Rep 1
[4] = 15 µM, N2 adult worms, Bio Rep 3
[5] = 15 µM, N2 adult worms, Bio rep 2
[6] = 30 µM, N2 adult worms, Averages of 3 biological repeats
[7] = 30 µM, N2 adult worms, Bio Rep 1
[8] = 30 µM, N2 adult worms, Bio Rep 3
[9] = 30 µM, N2 adult worms, Bio rep 2
[10] = 60 µM, N2 adult worms, Averages of 3 biological repeats
[11] = 60 µM, N2 adult worms, Bio Rep 1
[12] = 60 µM, N2 adult worms, Bio Rep 3
[13] = 60 µM, N2 adult worms, Bio rep 2
[14] = N2, 15 µM, adult worms, average of 3 biological repeats
[15] = N2, 30 µM, adult worms, average of 3 biological repeats
[16] = N2, 60 µM, adult worms, average of 3 biological repeats
[17] = N2 series 1 (run with e245, md414), 15 µM
[18] = N2 series 1 (run with e245, md414), 15 µM, single Bio Rep
[19] = N2 series 1 (run with e245, md414), 30 µM
[20] = N2 series 1 (run with e245, md414), 30 µM, single Bio Rep
[21] = N2 series 1 (run with e245, md414), 60 µM
[22] = N2 series 1 (run with e245, md414), 60 µM, single Bio Rep
[23] = N2 series 2 (run with e327), 15 µM
[24] = N2 series 2 (run with e327), 15 µM, single Bio Rep
[25] = N2 series 2 (run with e327), 30 µM
[26] = N2 series 2 (run with e327), 30 µM, single Bio Rep
[27] = N2 series 2 (run with e327), 60 µM
[28] = N2 series 2 (run with e327), 60 µM, single Bio Rep

Structure (SMILES): O=[N+]([O-])c1ccc(N2CCN(CC3CCCCC3)CC2)cc1 [Nemacol-1]
- activity against D. immitis (EC50) [1]: low micromolar activity
- % effect (motility), DIROIM L4 ([1]; 0.016 µM): 0%
- % effect (motility), DIROIM L4 ([1]; 0.08 µM): 0%
- % effect (motility), DIROIM L4 ([1]; 0.4 µM): 0%
- % effect (motility), DIROIM L4 ([1]; 2 µM): 5%
- % effect (motility), DIROIM L4 ([1]; 10 µM): 100%
- % effect (motility), DIROIM L4 ([1]; 50 µM): 100%
- atypical locomotion (number of animals) (C. elegans; 3.75uM, one hour): 9 and 12 and 2 and 3 and 11
- coiled (number of animals) (C. elegans; 3.75uM, one hour): 0 and 2 and 1
- no phene (number of animals) (C. elegans; 3.75uM, one hour): 11 and 8 and 16 and 17 and 9
- paralyzed (number of animals) (C. elegans; 3.75uM, one hour): 0
- Fraction Coiled (C. elegans; [2]): 0.15
- Fraction Jerky-Unc (C. elegans; [2]): 0.69
- Fraction No Phenotype (C. elegans; [2]): 0.15
- Fraction Parayzed (C. elegans; [2]): 0.0185
- Fraction Coiled (C. elegans; [3]): 0.17
- Fraction Jerky-Unc (C. elegans; [3]): 0.6111
- Fraction No Phenotype (C. elegans; [3]): 0.22
- Fraction Parayzed (C. elegans; [3]): 0
- Fraction Coiled (C. elegans; [4]): 0.11
- Fraction Jerky-Unc (C. elegans; [4]): 0.8333
- Fraction No Phenotype (C. elegans; [4]): 0.0556
- Fraction Parayzed (C. elegans; [4]): 0
- Fraction Coiled (C. elegans; [5]): 0.17
- Fraction Jerky-Unc (C. elegans; [5]): 0.6111
- Fraction No Phenotype (C. elegans; [5]): 0.17
- Fraction Parayzed (C. elegans; [5]): 0.05556
- any phene, mean % fraction of young adults exhibiting any phenotype (coiled, jerky-Unc or paralyzed) (C. elegans; 15uM, one hour, mean of three biological replicates): 91.0317%
- atypical locomotion (number of animals) (C. elegans; 15uM, one hour): 6 and 4 and 7 and 5 and 12 and 16
- coiled (number of animals) (C. elegans; 15uM, one hour): 5 and 8 and 13 and 4
- no phene (number of animals) (C. elegans; 15uM, one hour): 0 and 5 and 2 and 4
- paralyzed (number of animals) (C. elegans; 15uM, one hour): 9 and 11 and 1 and 0
- Fraction Coiled (C. elegans; [6]): 0.46
- Fraction Jerky-Unc (C. elegans; [6]): 0.31
- Fraction No Phenotype (C. elegans; [6]): 0.00
- Fraction Parayzed (C. elegans; [6]): 0.23
- Fraction Coiled (C. elegans; [7]): 0.61
- Fraction Jerky-Unc (C. elegans; [7]): 0.2222
- Fraction No Phenotype (C. elegans; [7]): 0.00
- Fraction Parayzed (C. elegans; [7]): 0.1667
- Fraction Coiled (C. elegans; [8]): 0.41
- Fraction Jerky-Unc (C. elegans; [8]): 0.3529
- Fraction No Phenotype (C. elegans; [8]): 0.00
- Fraction Parayzed (C. elegans; [8]): 0.2353
- Fraction Coiled (C. elegans; [9]): 0.35
- Fraction Jerky-Unc (C. elegans; [9]): 0.3529
- Fraction No Phenotype (C. elegans; [9]): 0.00
- Fraction Parayzed (C. elegans; [9]): 0.2941
- Fraction Coiled (C. elegans; [10]): 0.60
- Fraction Jerky-Unc (C. elegans; [10]): 0.10
- Fraction No Phenotype (C. elegans; [10]): 0.00
- Fraction Parayzed (C. elegans; [10]): 0.29
- Fraction Coiled (C. elegans; [11]): 0.69
- Fraction Jerky-Unc (C. elegans; [11]): 0.125
- Fraction No Phenotype (C. elegans; [11]): 0.00
- Fraction Parayzed (C. elegans; [11]): 0.1875
- Fraction Coiled (C. elegans; [12]): 0.56
- Fraction Jerky-Unc (C. elegans; [12]): 0.1111
- Fraction No Phenotype (C. elegans; [12]): 0.00
- Fraction Parayzed (C. elegans; [12]): 0.3333
- Fraction Coiled (C. elegans; [13]): 0.57
- Fraction Jerky-Unc (C. elegans; [13]): 0.07143
- Fraction No Phenotype (C. elegans; [13]): 0.00
- Fraction Parayzed (C. elegans; [13]): 0.3571
- atypical locomotion (number of animals) (C. elegans; 60uM, one hour): 2 and 1 and 4
- coiled (number of animals) (C. elegans; 60uM, one hour): 7 and 11 and 17 and 19 and 12 and 8
- no phene (number of animals) (C. elegans; 60uM, one hour): 0
- paralyzed (number of animals) (C. elegans; 60uM, one hour): 11 and 7 and 1 and 0 and 6 and 8
- motor defects after 24 h on compound (C. elegans; 24 h): no longer have obvious motor defects
- pEC50 (C. elegans; Caenorhabditis elegans, 1 h, read-out: C. elegans - motor disruption EC50): 5.15
- Fraction Coiled (C. elegans; [14]): 0.15
- Fraction Jerky-Unc (C. elegans; [14]): 0.69
- Fraction No Phenotype (C. elegans; [14]): 0.15
- Fraction Parayzed (C. elegans; [14]): 0.0185
- Fraction Coiled (C. elegans; [15]): 0.46
- Fraction Jerky-Unc (C. elegans; [15]): 0.31
- Fraction No Phenotype (C. elegans; [15]): 0.00
- Fraction Parayzed (C. elegans; [15]): 0.23
- Fraction Coiled (C. elegans; [16]): 0.60
- Fraction Jerky-Unc (C. elegans; [16]): 0.10
- Fraction No Phenotype (C. elegans; [16]): 0.00
- Fraction Parayzed (C. elegans; [16]): 0.29
- rep 1 atypical locomotion (C. elegans; conc 3.75): 3
- rep 1 coiled (C. elegans; conc 3.75): 2
- rep 1 no phene (C. elegans; conc 3.75): 15
- rep 1 paralyzed (C. elegans; conc 3.75): 0
- rep 1 atypical locomotion (C. elegans; conc 15): 3
- rep 1 coiled (C. elegans; conc 15): 4
- rep 1 no phene (C. elegans; conc 15): 7
- rep 1 paralyzed (C. elegans; conc 15): 6
- rep 1 atypical locomotion (C. elegans; conc 60): 2
- rep 1 coiled (C. elegans; conc 60): 3
- rep 1 no phene (C. elegans; conc 60): 0
- rep 1 paralyzed (C. elegans; conc 60): 15
- Fraction Coiled, Averages of 3 biological repeats (C. elegans; [17]): 0.26
- Fraction Jerky-Unc, Averages of 3 biological repeats (C. elegans; [17]): 0.67
- Fraction No Phenotype, Averages of 3 biological repeats (C. elegans; [17]): 0.037
- Fraction Parayzed, Averages of 3 biological repeats (C. elegans; [17]): 0.037
- C1 (loose coil) worm count (C. elegans; [18]): 1 and 2
- C2 (tight coil) worm count (C. elegans; [18]): 3 and 4
- Fraction Coiled (C. elegans; [18]): 0.28 and 0.22
- Fraction Jerky-Unc (C. elegans; [18]): 0.6111 and 0.7222 and 0.6667
- J (jerky-unc) worm count (C. elegans; [18]): 13 and 11 and 12
- Fraction Coiled, Averages of 3 biological repeats (C. elegans; [19]): 0.59
- Fraction Jerky-Unc, Averages of 3 biological repeats (C. elegans; [19]): 0.28
- Fraction No Phenotype, Averages of 3 biological repeats (C. elegans; [19]): 0.00
- Fraction Parayzed, Averages of 3 biological repeats (C. elegans; [19]): 0.13
- C1 (loose coil) worm count (C. elegans; [20]): 5
- C2 (tight coil) worm count (C. elegans; [20]): 5 and 7
- Fraction Coiled (C. elegans; [20]): 0.56 and 0.67
- Fraction Jerky-Unc (C. elegans; [20]): 0.1667 and 0.3333
- Fraction No Phenotype (C. elegans; [20]): 0.00
- J (jerky-unc) worm count (C. elegans; [20]): 6 and 3
- NP (no phene) worm count (C. elegans; [20]): 0
- Fraction Coiled, Averages of 3 biological repeats (C. elegans; [21]): 0.64
- Fraction Jerky-Unc, Averages of 3 biological repeats (C. elegans; [21]): 0.11
- Fraction No Phenotype, Averages of 3 biological repeats (C. elegans; [21]): 0.00
- Fraction Parayzed, Averages of 3 biological repeats (C. elegans; [21]): 0.25
- C1 (loose coil) worm count (C. elegans; [22]): 3 and 4
- C2 (tight coil) worm count (C. elegans; [22]): 6 and 8
- Fraction Coiled (C. elegans; [22]): 0.67 and 0.60
- Fraction No Phenotype (C. elegans; [22]): 0.00
- NP (no phene) worm count (C. elegans; [22]): 0
- Fraction Coiled, Averages of 3 biological repeats (C. elegans; [23]): 0.20
- Fraction Jerky-Unc, Averages of 3 biological repeats (C. elegans; [23]): 0.69
- Fraction No Phenotype, Averages of 3 biological repeats (C. elegans; [23]): 0.11
- Fraction Parayzed, Averages of 3 biological repeats (C. elegans; [23]): 0.00
- C2 (tight coil) worm count (C. elegans; [24]): 3 and 2
- Fraction Jerky-Unc (C. elegans; [24]): 0.7778 and 0.6667 and 0.6316
- Fraction No Phenotype (C. elegans; [24]): 0.11
- Fraction Parayzed (C. elegans; [24]): 0
- J (jerky-unc) worm count (C. elegans; [24]): 12 and 14
- NP (no phene) worm count (C. elegans; [24]): 2
- P (paralyzed) worm count (C. elegans; [24]): 0
- Fraction Coiled, Averages of 3 biological repeats (C. elegans; [25]): 0.49
- Fraction Jerky-Unc, Averages of 3 biological repeats (C. elegans; [25]): 0.36
- Fraction No Phenotype, Averages of 3 biological repeats (C. elegans; [25]): 0.00
- Fraction Parayzed, Averages of 3 biological repeats (C. elegans; [25]): 0.15
- C2 (tight coil) worm count (C. elegans; [26]): 4 and 7 and 6
- Fraction No Phenotype (C. elegans; [26]): 0.00
- NP (no phene) worm count (C. elegans; [26]): 0
- Fraction Coiled, Averages of 3 biological repeats (C. elegans; [27]): 0.57
- Fraction Jerky-Unc, Averages of 3 biological repeats (C. elegans; [27]): 0.11
- Fraction No Phenotype, Averages of 3 biological repeats (C. elegans; [27]): 0.00
- Fraction Parayzed, Averages of 3 biological repeats (C. elegans; [27]): 0.32
- C1 (loose coil) worm count (C. elegans; [28]): 3 and 4
- Fraction Coiled (C. elegans; [28]): 0.58 and 0.41 and 0.72
- Fraction No Phenotype (C. elegans; [28]): 0.00
- Fraction Parayzed (C. elegans; [28]): 0.3158 and 0.3529 and 0.2778
- NP (no phene) worm count (C. elegans; [28]): 0
- P (paralyzed) worm count (C. elegans; [28]): 6 and 5
- fold difference in C. elegans EC50, Vesamicol vs Nemacol-1 (C. elegans; Vesamicol EC50 higher, Nemacol-1 more potent): 5.4 fold
